# ChEMBL document CHEMBL3297701, “Functionalization, cyclization and antiviral activity of A-secotriterpenoids” (Eur J Med Chem, 2014)
# Test system: not listed separately
# Assay: microbe, parasite or virus in culture
# Format: functional, Influenza A virus (A/ts1/1/A/FPV/Rostock/1934(H7N1))
# Conditions: Influenza A virus, 36 h; call rule not given here
row,SMILES,EC50 [µM]
1,C=C(C)[C@@H]1CC[C@]2(C(=O)OC)CC[C@]3(C)[C@H](CC[C@@H]4[C@@]5(C)C/C(=N\O)[C@H](O)C(C)(C)[C@@H]5CC[C@]43C)[C@@H]12,> 100
2,C=C(C)[C@@H]1CC[C@]2(C(=O)O)CC[C@]3(C)[C@H](CC[C@@H]4[C@@]5(C)C/C(=N\O)C(=O)C(C)(C)[C@@H]5CC[C@]43C)[C@@H]12,12.9
3,C/N=C/C(C)(C)[C@@H]1CC[C@]2(C)[C@H](C(=O)C=C3[C@@H]4C[C@@](C)(C(=O)OC)CC[C@]4(C)CC[C@]32C)[C@@]1(C)CC#N,51.9
4,C=C(C)[C@@H]1CC[C@]2(C(=O)OC)CC[C@]3(C)[C@H](CC[C@@H]4[C@@](C)(CC#N)[C@H](C(C)(C)/C=N/O)CC[C@]43C)[C@@H]12,22.7
5,C=C(C)[C@@H]1CC[C@]2(C(=O)O)CC[C@]3(C)[C@H](CC[C@@H]4[C@@]5(C)C/C(=N\O)[C@H](O)C(C)(C)[C@@H]5CC[C@]43C)[C@@H]12,31.5
6,C=C(C)[C@@H]1CC[C@]2(C(=O)O)CC[C@]3(C)[C@H](CC[C@@H]4[C@@](C)(CC#N)[C@H](C(C)(C)/C=N/O)CC[C@]43C)[C@@H]12,18.2
7,"COC(=O)[C@@]1(C)CCC2(C)CC[C@]3(C)C(=CC(=O)[C@@H]4[C@@]5(C)C/C(=N\O)[C@H](O)C(C)(C)[C@@H]5CC[C@]43C)[C@@H]2C1 (single isomer, unassigned)",57.2
8,CC(C)(/C=N/O)[C@@H]1CC[C@]2(C)[C@H](CC[C@@H]3[C@H]4[C@H]5OC[C@@]4(CCC5(C)C)CC[C@]32C)[C@@]1(C)CC#N,58.7
9,"COC(=O)[C@@]1(C)CCC2(C)CC[C@]3(C)C(=CC(=O)[C@@H]4[C@@]5(C)C/C(=N\O)C(=O)C(C)(C)[C@@H]5CC[C@]43C)[C@@H]2C1 (single isomer, unassigned)",> 100
10,"COC(=O)[C@@]1(C)CCC2(C)CC[C@]3(C)C(=CC(=O)[C@@H]4[C@@](C)(CC#N)[C@H](C(C)(C)C=O)CC[C@]43C)[C@@H]2C1 (single isomer, unassigned)",53.5
11,CC1(C)CC[C@]23CC[C@]4(C)[C@H](CC[C@@H]5[C@@]6(C)C/C(=N\O)C(=O)C(C)(C)[C@@H]6CC[C@]54C)[C@H]2[C@H]1OC3,> 100
12,C=C(C)[C@@H]1CC[C@]2(C(=O)O)CC[C@]3(C)[C@H](CC[C@@H]4[C@@](C)(CC#N)[C@H](C(C)(C)C=O)CC[C@]43C)[C@@H]12,7.7
13,C=C(C)[C@@H]1CC[C@]2(C(=O)OC)CC[C@]3(C)[C@H](CC[C@@H]4[C@@]5(C)C/C(=N\O)C(=O)C(C)(C)[C@@H]5CC[C@]43C)[C@@H]12,98
14,CC1(C)CC[C@]23CC[C@]4(C)[C@H](CC[C@@H]5[C@@]6(C)C/C(=N\O)[C@H](O)C(C)(C)[C@@H]6CC[C@]54C)[C@H]2[C@H]1OC3,> 100

# Test system: Human immunodeficiency virus 1
# Assay: Antiviral activity against HIV-1 zmb infected in human MT-4 cells after 72 hrs by MTT assay
# Format: functional, organism-based, MT4
# Conditions: Human immunodeficiency virus 1, zmb, MT4, 72 h; read-out: EC50
row,SMILES,EC50 [µM]
1,C=C(C)[C@@H]1CC[C@]2(C(=O)O)CC[C@]3(C)[C@H](CC[C@@H]4[C@@]5(C)C/C(=N\O)C(=O)C(C)(C)[C@@H]5CC[C@]43C)[C@@H]12,0.06
2,C=C(C)[C@@H]1CC[C@]2(C(=O)O)CC[C@]3(C)[C@H](CC[C@@H]4[C@@](C)(CC#N)[C@H](C(C)(C)/C=N/O)CC[C@]43C)[C@@H]12,0.06
3,C=C(C)[C@@H]1CC[C@]2(C(=O)OC)CC[C@]3(C)[C@H](CC[C@@H]4[C@@]5(C)C(C#N)=CC(C)(C)[C@@H]5CC[C@]43C)[C@@H]12,50.5

# Same assay, conditions: mt4
row,SMILES,EC50
1,CC1(C)CC[C@]23CC[C@]4(C)[C@H](CC[C@@H]5[C@@]6(C)C(C#N)=C(N)C(C)(C)[C@@H]6CC[C@]54C)[C@H]2[C@H]1OC3,Not Active
2,C=C(C)[C@@H]1CC[C@]2(C(=O)OC)CC[C@]3(C)[C@H](CC[C@@H]4[C@@](C)(CC#N)[C@H](C(C)(C)/C=N/O)CC[C@]43C)[C@@H]12,Not Active
3,CC1(C)C=C(C#N)[C@]2(C)[C@H]3CC[C@@H]4[C@H]5[C@H]6OC[C@@]5(CCC6(C)C)CC[C@@]4(C)[C@]3(C)CC[C@@H]12,Not Active
4,C=C(C)[C@@H]1CC[C@]2(C(=O)OC)CC[C@]3(C)[C@H](CC[C@@H]4[C@@]5(C)C(C#N)=C(N)C(C)(C)[C@@H]5CC[C@]43C)[C@@H]12,Not Active

# Test system: not listed separately
# Assay: Selectivity ratio of MTD for human MT-4 cells to EC50 for HIV-1 zmb infected in human MT-4 cells
# Format: ADME, cell-based, MT4
# Conditions: not given
row,SMILES,selectivity ratio
1,C=C(C)[C@@H]1CC[C@]2(C(=O)O)CC[C@]3(C)[C@H](CC[C@@H]4[C@@]5(C)C/C(=N\O)C(=O)C(C)(C)[C@@H]5CC[C@]43C)[C@@H]12,51.5
2,C=C(C)[C@@H]1CC[C@]2(C(=O)O)CC[C@]3(C)[C@H](CC[C@@H]4[C@@](C)(CC#N)[C@H](C(C)(C)/C=N/O)CC[C@]43C)[C@@H]12,50
3,C=C(C)[C@@H]1CC[C@]2(C(=O)OC)CC[C@]3(C)[C@H](CC[C@@H]4[C@@]5(C)C(C#N)=CC(C)(C)[C@@H]5CC[C@]43C)[C@@H]12,3.2

# Test system: not listed separately
# Assay: in vitro
# Conditions: chicken, primary chicken embryo cells
row,SMILES,selectivity ratio
1,C=C(C)[C@@H]1CC[C@]2(C(=O)O)CC[C@]3(C)[C@H](CC[C@@H]4[C@@]5(C)C/C(=N\O)C(=O)C(C)(C)[C@@H]5CC[C@]43C)[C@@H]12,64.1
2,C/N=C/C(C)(C)[C@@H]1CC[C@]2(C)[C@H](C(=O)C=C3[C@@H]4C[C@@](C)(C(=O)OC)CC[C@]4(C)CC[C@]32C)[C@@]1(C)CC#N,15.1
3,C=C(C)[C@@H]1CC[C@]2(C(=O)OC)CC[C@]3(C)[C@H](CC[C@@H]4[C@@](C)(CC#N)[C@H](C(C)(C)/C=N/O)CC[C@]43C)[C@@H]12,35.4
4,C=C(C)[C@@H]1CC[C@]2(C(=O)O)CC[C@]3(C)[C@H](CC[C@@H]4[C@@]5(C)C/C(=N\O)[C@H](O)C(C)(C)[C@@H]5CC[C@]43C)[C@@H]12,6.8
5,C=C(C)[C@@H]1CC[C@]2(C(=O)O)CC[C@]3(C)[C@H](CC[C@@H]4[C@@](C)(CC#N)[C@H](C(C)(C)/C=N/O)CC[C@]43C)[C@@H]12,5.7
6,"COC(=O)[C@@]1(C)CCC2(C)CC[C@]3(C)C(=CC(=O)[C@@H]4[C@@]5(C)C/C(=N\O)[C@H](O)C(C)(C)[C@@H]5CC[C@]43C)[C@@H]2C1 (single isomer, unassigned)",3.4
7,CC(C)(/C=N/O)[C@@H]1CC[C@]2(C)[C@H](CC[C@@H]3[C@H]4[C@H]5OC[C@@]4(CCC5(C)C)CC[C@]32C)[C@@]1(C)CC#N,7.2
8,"COC(=O)[C@@]1(C)CCC2(C)CC[C@]3(C)C(=CC(=O)[C@@H]4[C@@](C)(CC#N)[C@H](C(C)(C)C=O)CC[C@]43C)[C@@H]2C1 (single isomer, unassigned)",15.1
9,C=C(C)[C@@H]1CC[C@]2(C(=O)O)CC[C@]3(C)[C@H](CC[C@@H]4[C@@](C)(CC#N)[C@H](C(C)(C)C=O)CC[C@]43C)[C@@H]12,3.5
10,C=C(C)[C@@H]1CC[C@]2(C(=O)OC)CC[C@]3(C)[C@H](CC[C@@H]4[C@@]5(C)C/C(=N\O)C(=O)C(C)(C)[C@@H]5CC[C@]43C)[C@@H]12,4.1
